What all share (assay): single-molecule MspA-M2 nanopore kinetics
In test [1] the test system is Theophylline-binding aptamer (RNA, aptamer) AGUGAUACCAGCAUCGUCUUGAUGCCCUUGGCAGCACU
The following applies: 1 M KCl; +180 mV, aptamer cis, 25 µM theophylline trans.

Test [2] concerns Serotonin-binding aptamer (DNA, aptamer) CGACTGGTAGGCAGATAGGGGAAGCTGATTCGATGCGTGGGTCG
Conditions: 1 M KCl; +120 mV, aptamer cis, serotonin trans.

For test [3], the system named is Dopamine-binding aptamer (DNA, aptamer) CGACGCCAGTTTGAAGGTTCGTTCGCAGGTGTGGAGTGACGTCG
The following applies: 1 M KCl; 10 mM Tris pH 7.4, +180 mV, aptamer cis, 25 µM dopamine trans.

SMILES strings stand for the structures.

One may read the Kd as a measure of binding affinity in units of concentration. High values mean lower affinity, low ones higher affinity. In turn, `Cn1c(=O)c2[nH]cnc2n(C)c1=O` showed a Kd in test [1] of 72 ± 17 µM.

In test [2], `NCCc1c[nH]c2ccc(O)cc12` gave a Kd of 9.0 ± 1.3 µM.

For the molecule `NCCc1ccc(O)c(O)c1`, in test [3], the Kd turned out to be 27 ± 3 µM. That is a double-digit micromolar value.

Source of the values: paper PMC10268594 (2023).
